Measured values reported in patent US20230148599A1, “FUNGICIDAL MIXTURES CONTAINING PYRAZOLE DERIVATIVES” (FMC Corporation, priority 2020, published 2023).

Key:
Format in all cases: in vivo
Conditions in all cases: 50 ppm, 100 = 100% disease control, 0 = no control
Botrytis cinerea = experiment: Test E: tomato Botrytis, preventive spray on tomato seedlings
Method in brief: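 Preventive test: seedlings sprayed to run-off with compound in acetone/water (50/50) plus 250 ppm PEG400, inoculated one day later with B. cinerea spores. Held 48 h saturated at 20° C, then 3 days at 24° C; disease control scored visually from 0 to 100 versus controls.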

Septoria tritici = experiment: Test A: wheat leaf blotch, preventive spray on wheat seedlings
Method in brief: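 Preventive test: one day after spraying seedlings to run-off (concentrations in ppm; acetone/water, 250 ppm PEG400), Septoria tritici spores applied. Scored after 48 h humid incubation at 24 °C plus 17 days at 20 °C, as percent disease control versus untreated controls (100 = full control).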

[1] = system: Puccinia recondita f. sp. tritici; experiment: Test B: wheat leaf rust, preventive spray on wheat seedlings
Method in brief: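 Preventive test: compound in acetone/water 50/50 with 250 ppm PEG400 was sprayed onto wheat seedlings one day before inoculation with leaf rust spores. After 24 h in saturated air and 7 days in a growth chamber, both at 20 °C, disease control was scored from 0 to 100 against controls.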

Phakopsora pachyrhizi = experiment: Test D: Asian soybean rust, preventive spray on soybean seedlings
Method in brief: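 Compounds in acetone/water (50/50) with 250 ppm PEG400, dosed in ppm, sprayed to run-off on soybean seedlings; inoculated with P. pachyrhizi spores next day. Held 24 h at 22 °C in saturated air, then 8 days at 22 °C; visual rating of disease control, 0–100, relative to untreated controls.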

[2] = system: Blumeria graminis f. sp. tritici; experiment: Test C: wheat powdery mildew, preventive spray on wheat seedlings
Text: General protocol for preparing test suspensions for Tests A-F: the test compounds were first dissolved in acetone in an amount equal to 3% of the final volume and then suspended at the desired concentration (in ppm) in acetone and purified water (50/50 mix by volume) containing 250 ppm of the surfactant PEG400 (polyhydric alcohol esters). The resulting test suspensions were then used in Tests A-F.
The test suspension was sprayed to the point of run-off on wheat seedlings. The following day the seedlings were inoculated with a spore dust of Blumeria graminis f. sp. tritici, (also known as Erysiphe graminis f. sp. tritici, the causal agent of wheat powdery mildew) and incubated in a growth chamber at 20° C. for 8 days, after which time visual disease ratings were made.
A rating of 100 indicates 100% disease control and a rating of 0 indicates no disease control (relative to the controls). A dash (−) indicates the compound was not tested.

Alternaria solani = experiment: Test F: tomato early blight, preventive spray on tomato seedlings
Method in brief: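 Preventive test: one day after the compound spray, seedlings were inoculated with A. solani, incubated saturated at 27 °C for 48 h, then kept at 20 °C for 3 days. Test suspensions contained acetone/water 50/50 with 250 ppm PEG400 surfactant. Visual ratings run from 0 (no control) to 100 (full control).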

Structure (SMILES)	Test E disease control rating (Botrytis cinerea) [%]	Test A disease control rating (Septoria tritici) [%]	Test B disease control rating [1] [%]	Test D disease control rating (Phakopsora pachyrhizi) [%]	Test C disease control rating [2] [%]	Test F disease control rating (Alternaria solani) [%]
Cc1nn(C)c(Nc2c(F)cc(F)cc2[N+](=O)[O-])c1-c1c(F)cccc1Cl [compound 39]	88	100	100	73	99	99
Cc1cc(F)c(Nc2c(-c3ccc(F)cc3Br)c(C)nn2C)c([N+](=O)[O-])c1 [compound 40]	98	100	100	82	100	100
Cc1nn(C)c(Nc2c(Cl)cccc2[N+](=O)[O-])c1-c1ccc(F)cc1Br [compound 41]	77	100	100	77	94	0
Cc1cccc([N+](=O)[O-])c1Nc1c(-c2ccc(F)cc2Br)c(C)nn1C [compound 42]	91	100	100	0	96	0
Cc1nn(C)c(Nc2c(Cl)cc(F)cc2[N+](=O)[O-])c1-c1ccc(F)cc1Br [compound 43]	96	100	100	65	97	64
Cc1nn(C)c(Nc2ccc(F)cc2[N+](=O)[O-])c1-c1c(F)cccc1Cl [compound 44]	95	100	99	0	98	46
CCc1nn(C)c(Nc2ccc(OC)cc2[N+](=O)[O-])c1-c1ccc(F)cc1F [compound 45]	99	100	86	0	95	33
CCc1nn(C)c(Nc2c(F)cccc2[N+](=O)[O-])c1-c1ccc(F)cc1F [compound 46]	99	100	98	0	99	81
Cc1nn(C)c(Nc2c(F)cc(I)cc2[N+](=O)[O-])c1-c1ccc(F)cc1Cl [compound 47]	95	100	97	92	89	96
COc1ccc(-c2c(C)nn(C)c2Nc2c(F)cccc2[N+](=O)[O-])c(C)c1 [compound 48]	97	100	95	0	89	97
Cc1nn(C)c(Nc2c(Cl)cc(F)cc2[N+](=O)[O-])c1-c1c(F)cccc1Cl [compound 49]	94	100	100	25	95	26
CCc1nn(C)c(Nc2c(F)cc(F)cc2[N+](=O)[O-])c1-c1ccc(F)cc1F [compound 50]	92	100	98	0	100	98
Cc1nn(C)c(Nc2c(F)cc(F)cc2[N+](=O)[O-])c1-c1ccc(F)cc1Br [compound 51]	98	100	100	79	100	99
COc1ccc(Nc2c(-c3ccc(F)cc3Br)c(C)nn2C)c([N+](=O)[O-])c1 [compound 52]	99	100	100	59	90	94
Cc1nn(C)c(Nc2c(F)cccc2[N+](=O)[O-])c1-c1c(Cl)cccc1Cl [compound 53]	98	100	100	0	98	98
Cc1nn(C)c(Nc2ccc(F)cc2[N+](=O)[O-])c1-c1c(Cl)cccc1Cl [compound 54]	21	100	91	0	93	0
Cc1nn(C)c(Nc2c(Cl)cc(Br)cc2[N+](=O)[O-])c1-c1ccc(F)cc1F [compound 55]	34	100	99	0	90	0
Cc1nn(C)c(Nc2c(F)cc(Br)cc2[N+](=O)[O-])c1-c1ccc(F)cc1F [compound 56]	99	100	100	65	100	99
Cc1nn(C)c(Nc2c(F)cc(F)cc2[N+](=O)[O-])c1-c1ccc(F)cc1F [compound 58]	99	100	100	36	99	99
Cc1nn(C)c(Nc2c(Cl)cc(Cl)cc2[N+](=O)[O-])c1-c1ccc(F)cc1Cl [compound 59]	99	100	100	96	99	92
